# Test results from patent US6337317B1, “Antimicrobial peptides and methods of use thereof” (priority 2000, dated 2002).
# Where a SMILES comes first, the peptide text is derived from it.
# Assays:
# [1] = system: E. coli 0111:B4 LPS induced production of IL-6 in RAW macrophages; assay: Reduction of LPS-induced IL-6 in RAW 264.7 macrophages (ELISA); format: cell-based, murine; conditions: peptide 20 μg/ml; LPS 100 ng/ml; RAW 264.7; 6 hours
# Protocol: The ability of invention peptides to reduce LPS-induced tumor necrosis factor (TNF) production was tested in an in vitro assay. The murine macrophage cell line RAW 264.7 was obtained from American Type Culture Collection (Manassas, Va.) and grown in DMEM medium supplemented with 10% fetal calf serum. The cells were plated at a density of 10^6 cells/well in 24 well plates, incubated overnight, then washed with fresh medium. E. coli 0111 :B4 (100 ng/ml) was added at time 0 to RAW macrophages. Invention peptides […]/m were added at time 0, 30 and 60 minutes and the cells were stimulated for 6 hours. Levels of TNF and interleukin-6 (IL-6) were measured after 6 hours.
# [2] = Dansyl polymyxin B displacement assay (binding affinity for LPS); design: species or system Escherichia coli
# Protocol: To determine whether invention peptides are able to interact with the LPS of Gram-negative bacterial outer membrane, the binding affinity of peptide for LPS was determined using a dansyl polymyxin B displacement assay (Moore et al. (1986) Antimicrobial Agents Chemother. 29:496-500). The assay uses dansyl polymyxin, a cationic probe that is highly fluorescent only when bound and LPS isolated from E. coli. UB1005. […] Maximal displacement of LPS was expressed as a percentage where 100% displacement of dansyl polymyxin B was taken as that observed with polymyxin B.
# [3] = system: P. aeruginosa H374; format: cell-based, Pseudomonas aeruginosa
# Protocol: (§1) The biological activity of the peptides can be determined by standard methods known to those of skill in the art, such as a “minimal inhibitory concentration” (MIC) assay (see Wu and Hancock (1999) J. Biol Chem. 274:29-35 and Examples section). A MIC assay allows the determination of the lowest concentration of peptide that inhibits the multiplication and growth of mircoorganisms. Changes in the microorganism population are assessed by measuring the optical density (OD) of the population in broth or medium. Peptide MIC's can be determined for a variety of micoorganisms under a variety of conditions. Another assay for the biological activity of the peptides is a “fractional inhibitory concentration” (FIC) assay. This assay is especially useful for determining synergistic effects between the peptides of the invention, and between invention peptides and other compounds such as known antibiotics. A FIC assay employs the strategy of a MIC assay with additional variable(s), e.g., known antibiotics. […] The FIC is calculated by looking at the impact of an antibiotic on the MIC of the peptide and the reciprocal relationship. […] As used herein, FIC can be determined as follows: […]
# (§2) MIC Assay p The minimum inhibitory concentrations of (MIC) of several invention peptides were determined using methods described elsewhere (Wu and Hancock, (1999) J. Biol Chem. 274:29-35). […]
# [4] = system: P. aeruginosa H744; format: cell-based, Pseudomonas aeruginosa
# Protocol: as §1, §2
# [5] = system: E. coli KF130; format: cell-based, Escherichia coli
# Protocol: as §1, §2
# [6] = system: E. coli DC2; format: cell-based, Escherichia coli; conditions: E. coli DC2 (outer membrane deficient mutant)
# Protocol: as §1, §2
# [7] = system: P. aeruginosa M2; assay: P. aeruginosa infection in neutropenic mouse model; format: in vivo; conditions: neutropenic CD-1 mice
# Protocol: Invention peptides were assayed for their ability to protect against P. aeruginosa infection in a neutropenic mouse mode. Female CD-1 mice, made neutropenic by three injections of cyclophosphamide (see Gough et al., (1996) Infect. Immun. 64:4922-4927) were injected intraperitoneally with a 100% lethal dose of P. aeruginosa M2 (approximately 200 organisms). Thirty minutes later, mice were injected intraperitoneally with invention peptides (200 μg/100 μl) Survival was assessed 24 to 72 hours later.
# [8] = system: Salmonella typhimurium 14028s; format: cell-based
# Protocol: (§3) The biological activity of the peptides can be determined by standard methods known to those of skill in the art, such as a “minimal inhibitory concentration” (MIC) assay (see Wu and Hancock (1999) J. Biol Chem. 274:29-35 and Examples section). A MIC assay allows the determination of the lowest concentration of peptide that inhibits the multiplication and growth of mircoorganisms. Changes in the microorganism population are assessed by measuring the optical density (OD) of the population in broth or medium. Peptide MIC's can be determined for a variety of micoorganisms under a variety of conditions. Another assay for the biological activity of the peptides is a “fractional inhibitory concentration” (FIC) assay. This assay is especially useful for determining synergistic effects between the peptides of the invention, and between invention peptides and other compounds such as known antibiotics. A FIC assay employs the strategy of a MIC assay with additional variable(s), e.g., known antibiotics. One type of FIC assay is performed in a microwell plate containing microorganisms in broth. Peptides, in a range of dilutions, is added to each well following a patter of one dimension of the microwell plate, and antibiotics, in the other dimension. The FIC is calculated by looking at the impact of an antibiotic on the MIC of the peptide and the reciprocal relationship. […] Preferably, an FIC of less than 0.5 is obtained for synergism. As used herein, FIC can be determined as follows:
# (§4) The bacterial strains used for antimicrobial activity assays included E. coli UB1005 (F^−, nalA37, metB1) and its outer membrane deficient mutant DC2 (16), E. coli KF130 (gyrA) (Hooper et al. (1987) Am. J. Med. 82:(Suppl. 4A),12-20), wild tppe strains of S. typhimurium 14028s (Fields et al. (1989) Science 243:1059-1062), S. aureus ATCC25923, S. aureus SAP0017 and R147. Also included was a clinical isolate of S. epidermidis were obtained from Dr. D. Speert, Department of Medicine, University of British Columbia, and P. aeruginosa PAO1 (Hancock and Carey (1979) J. Bacteriol. 140:902-910), H374 and H744 (Poole et al. (1993) J. Bacterial.175:7363-7372.) and E. faecalis ATCC 29212. Antifungal activity was tested using a clinical lab isolate of Candida albicans. All the strains were grown in Mueller Hinton (MH) broth (Difco Laboratories, Detroit, Mich.) at 37° C. unless otherwise indicated. The lipopolysaccharides (LPS) of E. coli UB1005 and P. aeruginosa H103 used for the dansyl-polymyxin B replacement assay were isolated as described by Moore et al. ((1986) Antimicrobial. Agents Chemother. 29:496-500). Polymyxin B, 1-N-phenylnapthylamine (NPN), carbonyl cyanide-m-chlorophenyl hydrazone (CCCP), Re LPS from S. Minnesota R595 (Re mutant) and LPS from E. coli 0111 :B4 were purchased from Sigma Chemicals Co. (St. Louis, Mo.). Dansyl polymyxin B was synthesized as described previously (Moore et al. (1986) Antimicrobial. Agents Chemother. 29:496-500). The lipids 1-pamitoyl-2-oleoyl-sn-glycero-3-phosphocholine (POPC), 1-palmitoyl-2-oleoyl-sn-glycero-3-phosphoglycerol (POPG), 1-palmitoyl-2-oleoyl-sn-glycero-3-phosphoethanolamine (POPE) and phosphatidylglycerol from egg yolk (egg-PG) were purchased from Avanti Polar Lipids Inc. (Alabaster, Ala.). The fluorescent dye 3,3-dipropylthiacarbocyanine (diSC35) was purchased from Molecular Probes (Eugene, Oreg.).
# (§5) MIC Assay p The minimum inhibitory concentrations of (MIC) of several invention peptides were determined using methods described elsewhere (Wu and Hancock, (1999) J. Biol Chem. 274:29-35). Cells were grown overnight at 37EC in LB-S (Luria broth without any salt supplement) and diluted one in 10,000 in the same medium to give concentrations of about 10^4 to 10^5 CFU/ml. The broth dilutions were set up in a 96-well microtiter plate by putting 200 μl of LB-S containing the initial concentration of antibiotic or compound in column 1 and 100 Φl of the same medium in columns 2-12. […]
# [9] = system: Staphylococcus aureus ATCC 25923; format: cell-based
# Protocol: as §3, §4, §5
compound,measurement,setting,value
"CC(C)[C@@H]1NC(=O)[C@H](CCCNC(=N)N)NC(=O)[C@H](Cc2ccccc2)NC(=O)[C@@H](NC(=O)[C@H](Cc2c[nH]c3ccccc23)NC(=O)[C@H](CCCNC(=N)N)NC(=O)[C@@H](N)CCCNC(=N)N)CSSC[C@@H](C(=O)N[C@@H](CCCNC(=N)N)C(N)=O)NC(=O)[C@H](CCCCN)NC(=O)[C@H](CCCNC(=N)N)NC(=O)[C@H](Cc2ccc(O)cc2)NC(=O)[C@@H]2CSSC[C@H](NC1=O)C(=O)N[C@@H](Cc1ccc(O)cc1)C(=O)N[C@@H](CCCNC(=N)N)C(=O)NCC(=O)N[C@@H](Cc1ccccc1)C(=O)N2 [Polyphemusin I] (HELM PEPTIDE1{R.R.W.C.F.R.V.C.Y.R.G.F.C.Y.R.K.C.R.[am]}$PEPTIDE1,PEPTIDE1,4:R3-17:R3|PEPTIDE1,PEPTIDE1,8:R3-13:R3$$$V2.0; N-terminus and C-terminus assumed)",Inhibition of IL-6 (%),[1],84 ± 3%
same,Imax,"[2]; maximal displacement, 100% = that observed with polymyxin B",85%
same,IC50,"[2]; peptide concentration reducing bound dansyl polymyxin B (10 μM) by 50% of maximal displacement, read-out: I50",4.8 µM
same,MIC,[3],0.25 µg/mL
same,MIC,[4],0.25 µg/mL
same,MIC,[5],0.125 µg/mL
same,MIC,[6],0.125 µg/mL
same,Mean Time to Death,[7]; 200 μg peptide intraperitoneally 30 min after infection,52 h
same,"Survival (%), P. aeruginosa infection","[7]; 200 μg peptide intraperitoneally, groups of 5 mice, assessed 24 to 72 hours",20%
same,MIC,[8],0.25 µg/mL
same,MIC,[9],0.5 µg/mL
